US5094857A, “Treatment of acne or androgenetic alopecia by topical administration of ethisterone” (priority 1987, dated 1992)

Tests used:
androgenetic alopezia = assay: Hair growth material on bald spots in androgenetic alopezia (Example VI); format: in vivo; conditions: for hair growth on previously bald spot: 2% solution in 50% ethanol and 50% Tween 20, rubbed twice daily, 1 mg per cm^2, four weeks; for undesirable side effects: topical, twice daily, 2% solution
Method: A 2% solution of nor-ethisterone in 50% ethanol and 50% Tween 20, was utilized for the assistance in hair growth by androgenetic alopezia. The bald spots were rubbed twice daily with a sufficient amount of hair growth material to provide a concentration of 1 mg per cm^2 nor-ethisterone through the skin barrier to the receptor site.

gestogen receptors = biological target: T1, gestogen receptors (Ovis aries, UniProt A0ACI6RU96); assay: Binding to gestogen receptors in a sheep uterus (FIG. 2)
T1 sequence (A0ACI6RU96 1-911): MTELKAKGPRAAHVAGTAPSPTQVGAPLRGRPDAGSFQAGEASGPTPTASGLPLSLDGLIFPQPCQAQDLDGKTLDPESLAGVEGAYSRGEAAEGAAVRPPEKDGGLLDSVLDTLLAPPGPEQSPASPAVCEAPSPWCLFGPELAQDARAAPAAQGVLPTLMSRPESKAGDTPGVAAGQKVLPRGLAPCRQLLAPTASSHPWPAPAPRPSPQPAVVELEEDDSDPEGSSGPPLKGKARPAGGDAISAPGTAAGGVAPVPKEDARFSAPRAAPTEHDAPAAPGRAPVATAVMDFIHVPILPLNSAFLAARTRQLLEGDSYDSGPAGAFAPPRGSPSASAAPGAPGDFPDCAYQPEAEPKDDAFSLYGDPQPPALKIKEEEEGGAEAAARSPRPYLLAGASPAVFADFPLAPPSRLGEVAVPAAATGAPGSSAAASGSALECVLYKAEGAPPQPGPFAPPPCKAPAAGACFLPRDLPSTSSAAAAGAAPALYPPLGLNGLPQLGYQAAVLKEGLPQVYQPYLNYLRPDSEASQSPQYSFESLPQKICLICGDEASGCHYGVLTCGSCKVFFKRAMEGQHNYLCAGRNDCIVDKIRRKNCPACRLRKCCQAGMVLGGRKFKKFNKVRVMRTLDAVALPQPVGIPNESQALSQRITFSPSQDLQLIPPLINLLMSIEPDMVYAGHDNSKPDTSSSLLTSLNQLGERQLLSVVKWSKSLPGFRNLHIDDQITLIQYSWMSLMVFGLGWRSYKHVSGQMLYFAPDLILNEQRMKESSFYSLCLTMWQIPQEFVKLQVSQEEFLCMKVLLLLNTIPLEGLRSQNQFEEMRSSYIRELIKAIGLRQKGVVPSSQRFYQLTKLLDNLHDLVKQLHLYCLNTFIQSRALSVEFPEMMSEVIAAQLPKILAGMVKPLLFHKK
Description: These experiments relating to the competitive binding of different hormanal substances can only describe certain aspects of the binding kinetics, but not all aspects of the pharmacokinetics. It is thus necessary to test the biological effects of steroid hormones by in vivo methods.

[1] = biological target: T2, androgen receptor preparations of sebaceous glands (Mesocricetus auratus, UniProt A0A1U7QL32); assay: Competitive binding analysis (displacement of tritium-marked R 1881); set-up: species or system Syrian hamster; conditions: for in vitro affinity at 50% blocking (rank order): displacement of 8 nM tritium-marked R 1881, FIG. 1; for affinity (RBA) for the androgen receptors, in words: displacement of tritium-marked R 1881
T2 construct: [3H]R1881 displacement with excess triamcinolone acetate
T2 sequence (A0A1U7QL32 1-900): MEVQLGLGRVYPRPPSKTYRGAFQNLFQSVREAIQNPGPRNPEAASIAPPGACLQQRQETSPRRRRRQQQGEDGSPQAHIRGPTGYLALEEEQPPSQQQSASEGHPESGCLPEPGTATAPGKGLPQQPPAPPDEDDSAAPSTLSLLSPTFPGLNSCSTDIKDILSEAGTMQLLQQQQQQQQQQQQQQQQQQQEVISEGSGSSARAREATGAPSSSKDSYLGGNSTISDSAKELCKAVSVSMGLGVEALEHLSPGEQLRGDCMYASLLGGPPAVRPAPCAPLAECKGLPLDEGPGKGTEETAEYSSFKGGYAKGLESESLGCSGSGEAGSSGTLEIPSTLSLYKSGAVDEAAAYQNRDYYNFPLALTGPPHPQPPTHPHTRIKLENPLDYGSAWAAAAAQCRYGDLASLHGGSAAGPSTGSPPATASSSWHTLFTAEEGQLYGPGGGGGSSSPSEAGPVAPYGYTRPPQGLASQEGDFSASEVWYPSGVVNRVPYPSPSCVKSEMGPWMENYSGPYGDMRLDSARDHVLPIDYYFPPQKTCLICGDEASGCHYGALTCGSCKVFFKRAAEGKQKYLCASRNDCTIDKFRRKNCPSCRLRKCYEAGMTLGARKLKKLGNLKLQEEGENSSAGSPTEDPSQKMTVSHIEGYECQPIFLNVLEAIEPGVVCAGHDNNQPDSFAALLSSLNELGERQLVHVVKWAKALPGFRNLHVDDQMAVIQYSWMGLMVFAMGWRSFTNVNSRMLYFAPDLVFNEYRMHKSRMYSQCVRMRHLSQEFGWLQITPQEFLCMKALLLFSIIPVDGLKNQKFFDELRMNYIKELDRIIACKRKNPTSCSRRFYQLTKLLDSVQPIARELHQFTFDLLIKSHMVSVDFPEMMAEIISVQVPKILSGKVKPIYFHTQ
Description: The standardisation basis in competitive binding analysis is the concentration of the competitor which, can displace 50% of a radioactively labeled reference substance from the receptor. This is conditioned upon the assumption that a relative binding efficiency (RPA) is proof of a high […] in the test material.
The comparison of the in vivo sebum suppression with RBA to the androgen receptor in vitro, should give the key to the answer of whether the substance itself or metabolites thereof, are responsible for the activity.
For the competitive study the web material of five ear shells was gathered. After homogenization in buffer A (10 mM-Tris-HCl-pH 7.4; 1.5 mM EDTA; 5 mM monothiogylcerine) cytosol was obtained as a supernate after ultracentrification at 120×10^3 g for thirty minutes at 4° C. The protein content was adjusted to between 1 to 5 mg/ml with a buffer A.
After a reaction time of 12 hours at 4° C. to achieve equilibrium, the unbound steroid hormones were removed from the reaction mixture by means of dextrancoated activated charcoal suspension (0.5% activated charcoal and 0.05% detran in […] Tris-HCl-buffer; pH 7.4). An aliquot of the supernate after centrifugation was measured in a fluid scintillation counter.

[2] = system: skin upper surface lipids; assay: Human studies: skin surface lipid content after topical ethisterone lotion; format: in vivo
Method: A 2% ethisterone formulation was prepared in accordance with Example I. Five male and five female human test subjects took part in the experiment who were treated on their left foreheads with the ethisterone lotion. The subjects applied the lotion twice a day at a concentration of approximately 0.1 mg per cm^2 of ethisterone applied to the receptors.
The lipid content of the upper skin surface of both left and right forehead portions were measured prior to the onset of therepy (0 control), in the second and the fourth weeks of therapy.
Initially the replacement sum was determined. The skin was first cleaned with cigarette paper dipped in acetone and stroked six to eight times over the test area. After sixty minutes the skin lipids were removed from the skin portion of the following manner. Cigarette paper was placed by means of tweezers on the segment to be measured and on the cigarette paper was placed a mass of 280 grams having a surface area of 5 cm^2. Thereafter, the paper was eluted with a mixture comprising 70 parts of acetone and 30 parts of methanol. The thus produced eluate was evaporated to dryness and treated with phosphovanillic acid, thereafter the eluate was evaluated by gas chromatography. Previously, the gas chromatograph had been calibrated with 25 standard skin lipids (mono-di-, triglyceride, cholesterol as well as cholesterol esters, oleic acid esters, having 10 to 18 carbon atoms as well as waxes having up to 28 carbon atoms).
The eluate was also subjected, to thin layer chromomatography. It is noted that generally, speaking the standard substances may be regarded as representative of skin upper surface lipids.

[3] = ethisterone in oil-in-water emulsion applied to the skin (summary statement)

Row | SMILES | hair growth on previously bald spot (androgenetic alopezia) | undesirable side effects (androgenetic alopezia) | binding affinity to gestogen receptors (comparison) (gestogen receptors) | in vitro affinity at 50% blocking (rank order) [1] | affinity (RBA) for the androgen receptors, in words [1] | lipid content on treated skin upper surface area less than untreated area ([2]; 2% ethisterone lotion twice a day on left forehead, approx. 0.1 mg per cm^2, four week treatment) | wax content reduced ([2]; 2% ethisterone lotion twice a day on left forehead, four week treatment) | reduction of lipids which comprise waxy substances (C20 to C28) [2, 3] | reduction of total lipid content of the skin from the initial value [2, 3]
1 | C#C[C@]1(O)CC[C@H]2[C@@H]3CCC4=CC(=O)CC[C@@H]4[C@H]3CC[C@@]21C [nor-ethisterone, 17-hyroxy-19-norpregn-4-en-20-yn-3-one] | a hair fuzz is noted on the previously bald spot | no undesirable side effects were noted | higher binding affinity than progesterone and ethisterone | – | – | – | – | – | –
2 | CCCC1(O)CCC2C3CCC4CC(=O)CC(C)C4(C)C3CCC21C (stereo not drawn) [17-alpha-PM, 17-alpha-propyl-mesterolone] | practically the same result is obtained | no undesirable side effects were noted | – | R 1881, 17-alpha-PM, ethisterone, CPA, SL and dexamethasone | substantially higher affinity | – | – | – | –
3 | C[C@@H]1C[C@H]2[C@@H]3CCC4=CC(=O)C=C[C@]4(C)[C@@]3(F)[C@@H](O)C[C@]2(C)[C@@]1(O)C(=O)CO [dexamethasone] | – | – | – | R 1881, 17-alpha-PM, ethisterone, CPA, SL and dexamethasone | may be disregarded | – | – | – | –
4 | CC(=O)[C@H]1CC[C@H]2[C@@H]3CCC4=CC(=O)CC[C@]4(C)[C@H]3CC[C@]12C [progesterone] | – | – | nor-ethisterone has a higher binding affinity than progesterone and ethisterone | – | – | – | – | – | –
5 | C#C[C@]1(O)CC[C@H]2[C@@H]3CCC4=CC(=O)CC[C@]4(C)[C@H]3CC[C@@]21C [ethisterone, 17-alpha-hydroxypregen-4-en-20-yn-3-one] | – | – | nor-ethisterone has a higher binding affinity than progesterone and ethisterone | R 1881, 17-alpha-PM, ethisterone, CPA, SL and dexamethasone | satisfactory middle place between 17-alpha-PM and synthetic R 1881 | 25% | 75% | 75 % by weight | about 25%
